Experimental data: the NIST ThermoML archive (doi:10.1016/j.jct.2010.11.004)

Test: excess molar enthalpy (molar enthalpy of mixing); xn = mol fraction of the nth substance listed
Conditions: 298.15 K, 101 kPa, Liquid, ISOTHERMAL TITRATION CALORIMETRY

CCCCCCCCC(C)=O [2-decanone] + CCCCCCCCCCCC
Conditions	excess molar enthalpy [kcal/mol]
x1 = 0.0258	0.0318
x1 = 0.0503	0.059
x1 = 0.0736	0.0822
x1 = 0.0958	0.102
x1 = 0.1169	0.119
x1 = 0.1371	0.134
x1 = 0.1612	0.15
x1 = 0.1841	0.164
x1 = 0.2057	0.175
x1 = 0.2262	0.185
x1 = 0.2456	0.193
x1 = 0.2641	0.2
x1 = 0.2847	0.206
x1 = 0.3042	0.211
x1 = 0.3226	0.216
x1 = 0.3401	0.219
x1 = 0.3567	0.222
x1 = 0.3725	0.224
x1 = 0.3897	0.226
x1 = 0.406	0.227
x1 = 0.4215	0.228
x1 = 0.4362	0.228
x1 = 0.4501	0.227
x1 = 0.4634	0.227
x1 = 0.4782	0.226
x1 = 0.4923	0.225
x1 = 0.5055	0.224
x1 = 0.5182	0.222
x1 = 0.5302	0.22
x1 = 0.5416	0.218
x1 = 0.5543	0.216
x1 = 0.5663	0.214
x1 = 0.5777	0.211
x1 = 0.5885	0.209
x1 = 0.5987	0.206
x1 = 0.6049	0.204
x1 = 0.6179	0.201
x1 = 0.6311	0.197
x1 = 0.6448	0.193
x1 = 0.6592	0.188
x1 = 0.6742	0.183
x1 = 0.6899	0.178
x1 = 0.704	0.173
x1 = 0.7187	0.167
x1 = 0.7341	0.161
x1 = 0.7501	0.154
x1 = 0.7668	0.146
x1 = 0.7843	0.137
x1 = 0.8	0.13
x1 = 0.8163	0.121
x1 = 0.8334	0.112
x1 = 0.8511	0.102
x1 = 0.8696	0.0918
x1 = 0.889	0.0798
x1 = 0.9057	0.0686
x1 = 0.9231	0.0571
x1 = 0.9412	0.0442
x1 = 0.96	0.0308
x1 = 0.9796	0.0158

CCCCCCCCC(C)=O [2-decanone] + CCCCCCCCCCCCCC
Conditions	excess molar enthalpy [kcal/mol]
x1 = 0.0282	0.0361
x1 = 0.0549	0.0664
x1 = 0.0805	0.092
x1 = 0.1041	0.114
x1 = 0.1268	0.132
x1 = 0.1484	0.148
x1 = 0.1741	0.165
x1 = 0.1983	0.18
x1 = 0.2212	0.192
x1 = 0.2427	0.202
x1 = 0.2632	0.211
x1 = 0.2825	0.218
x1 = 0.3044	0.225
x1 = 0.325	0.23
x1 = 0.3444	0.235
x1 = 0.3628	0.238
x1 = 0.3801	0.241
x1 = 0.3965	0.243
x1 = 0.4145	0.245
x1 = 0.4313	0.245
x1 = 0.4472	0.246
x1 = 0.4623	0.246
x1 = 0.4765	0.245
x1 = 0.4901	0.245
x1 = 0.5029	0.244
x1 = 0.5151	0.242
x1 = 0.5292	0.241
x1 = 0.5425	0.239
x1 = 0.555	0.236
x1 = 0.5669	0.234
x1 = 0.5782	0.232
x1 = 0.5889	0.229
x1 = 0.5991	0.227
x1 = 0.6088	0.224
x1 = 0.6201	0.221
x1 = 0.6308	0.217
x1 = 0.6408	0.214
x1 = 0.6504	0.211
x1 = 0.6594	0.208
x1 = 0.668	0.205
x1 = 0.6762	0.202
x1 = 0.684	0.199
x1 = 0.7031	0.189
x1 = 0.7191	0.182
x1 = 0.7334	0.176
x1 = 0.7483	0.169
x1 = 0.7638	0.162
x1 = 0.7799	0.154
x1 = 0.7968	0.145
x1 = 0.8144	0.135
x1 = 0.8298	0.126
x1 = 0.8458	0.116
x1 = 0.8624	0.106
x1 = 0.8797	0.0939
x1 = 0.8977	0.0815
x1 = 0.9133	0.07
x1 = 0.9294	0.0578
x1 = 0.9461	0.0452
x1 = 0.9634	0.0311
x1 = 0.9814	0.016

CCCCCCCCC(C)=O [2-decanone] + CCCCCCCCCCCCCCCC
Conditions	excess molar enthalpy [kcal/mol]
x1 = 0.0372	0.048
x1 = 0.0716	0.087
x1 = 0.1038	0.119
x1 = 0.1337	0.145
x1 = 0.1617	0.167
x1 = 0.188	0.185
x1 = 0.2169	0.203
x1 = 0.2437	0.217
x1 = 0.2688	0.229
x1 = 0.2923	0.239
x1 = 0.3143	0.246
x1 = 0.335	0.253
x1 = 0.3574	0.258
x1 = 0.3784	0.263
x1 = 0.3981	0.266
x1 = 0.4166	0.268
x1 = 0.434	0.27
x1 = 0.4503	0.27
x1 = 0.4686	0.27
x1 = 0.4857	0.27
x1 = 0.5017	0.269
x1 = 0.5168	0.268
x1 = 0.531	0.266
x1 = 0.5443	0.264
x1 = 0.559	0.261
x1 = 0.5728	0.259
x1 = 0.5858	0.256
x1 = 0.598	0.253
x1 = 0.6095	0.25
x1 = 0.6204	0.247
x1 = 0.6324	0.243
x1 = 0.6436	0.239
x1 = 0.6542	0.236
x1 = 0.6641	0.232
x1 = 0.6735	0.228
x1 = 0.6824	0.224
x1 = 0.6964	0.217
x1 = 0.7102	0.21
x1 = 0.7245	0.204
x1 = 0.7393	0.197
x1 = 0.7521	0.191
x1 = 0.7655	0.184
x1 = 0.7793	0.176
x1 = 0.7936	0.168
x1 = 0.8084	0.159
x1 = 0.8238	0.149
x1 = 0.8372	0.14
x1 = 0.8511	0.13
x1 = 0.8654	0.12
x1 = 0.8802	0.109
x1 = 0.8955	0.0966
x1 = 0.9114	0.0837
x1 = 0.9251	0.0722
x1 = 0.9391	0.0598
x1 = 0.9537	0.0461
x1 = 0.9686	0.0318
x1 = 0.9841	0.0163
